Assay results: patent US7968607B2, “Skin pore minimizers and skin elasticity improvers” (Koa Corporation, priority 2000, dated 2011)
Structures can show the parent of a compound that is named as a salt. Where two headings read alike, the source gives them in different places.

Assays:
[1] = tested on: human skin fibroblasts (derived from a human fore skin); experiment: Collagen gel tightening promoting ability (fibroblast-embedded collagen gel, dermis model); assay type: cell-based; details: for activity at 15 µM / activity at 50 µM: read-out: Average gel volume
Method: Measurement was conducted on the ability to promote the tightening of a fibroblast-embedded collagen gel as a dermis model. The collagen gel was prepared following the procedure reported in a publication [J. Cell Science, 102, 315 (1992) or J. Invest. Dermatol., 93, 792 (1989)]. Described specifically, a solution of HEPES (250 mM) in a 0.05 N sodium hydroxide solution, a 5-fold concentrate of DMEM (“GIBCO DMEM”, low glucose), FCS (2%, Fetal Calf Serum) and purified water were added under ice cooling to a collagen gel solution (product of Nitta Gelatin Inc., “type 1-A” (3.0 mg/mL, pH=3)), and finally, a suspension of human skin fibroblasts (derived from a human fore skin) was added. After the resulting mixture was thoroughly stirred to eliminate bubbles, 600 μL per well was added to 24-well dishes, followed by immediate warming at 37° C. in an incubator to effect gelation. Three to four hours later, 1 mL of serum-free DMEM medium was added to each of the wells, and the gels were separated at peripheries thereof from the corresponding dishes and were brought into a floating state. Eighteen hours after that, the medium was replaced with serum-free DMEM media which contained 100 to 10 μM of test substances, respectively, and incubation was conducted further for 48 hours.
Volume measurement of the gels was conducted by a weight measuring method similar to that reported in the publication [J. Cell Science, 102, 315 (1992)]. Described specifically, subsequent to immobilization with 10% formalin (4° C., 24 hours), the surface tension of water was reduced by the addition of Triton X100 (product of Wako Pure Chemical Industries) (1%), and the weights were measured.
Measurement results of relative volumes for the respective compounds as calculated supposing that the volume of the control was 100% are presented in Table 3.

[2] = tested on: keratinocytes ("NHEK 6306", Clonetics); experiment: Contraction of collagen gel seeded with keratinocytes; assay type: cell-based, human; details: 1 hour after addition, area inside contracted ring, control (gel peeling alone) = 100
Method: • 1) After type I collagen (“Cellmatrix Type I-A”, Nitta Gelatin), “MCDB 153 medium” (Sigma Chemical Co.), 20 mM HEPES (Wako Pure Chemical Industries) and purified water were thoroughly mixed under ice cooling, 500 μL per well were added to a 24-well plate (Falcon), followed by warming at 37° C. in an incubator to effect gelation. Using MCDB 153 medium, 1 mL aliquots of keratinocytes (“NHEK 6306”, Clonetics) were seeded at 2×10^4 cells/cm^2 onto the collagen gels, respectively. Subsequent to incubation for 24 hours, the collagen gels were peeled off with a pipette tip from the culture dishes. Shortly after that, test substances prepared to a concentration as high as 100 times the final concentration were added 10 μL by 10 μL. Upon elapsed time of 1 hour after the addition, the gels were photographed using a “Minolta α707-si Camera” with “50 Macrolens”. Subsequent to development of the pictures, contracted rings were copied onto OHP sheets, the areas inside the contracted rings were determined by image analysis software, “Image-Pro PLUS” (Media Cybanetics, Inc.), and contraction ratios (%) were calculated supposing that the contraction ratio (%) of a control (gel peeling alone) was 100.

[3] = tested on: ear skin pores of New Zealand white rabbits; experiment: Rabbit ear skin pore size after topical application; assay type: in vivo; details: 2% solution in ethanol, 8 weeks
Method: Three of New Zealand white rabbits (male, about 2.5 kg) which ear skin pores were conspicuous were used. A 2% solution of Compound 9 (solvent: ethanol) was applied onto the left ear of each rabbit, and the solvent was applied onto the right ear of the rabbit as a control site, each on the inner side of the ala, twice a day, 150 μL each time.
Upon elapsed time of 8 weeks after the initiation of the application, the skin was collected, and the size of skin pores was measured by image analysis. Described specifically, each rabbit was sacrificed and then, his ears were collected. A scalpel was inserted into each ear sample around the applied site, and the skin was peeled off above the cartilage. At that time, care was exercised to avoid stretching of the skin. The skin was spread over a cork board and then, subjected to biopsy with a punch of 6 mm in diameter to collect the skin from six (6) locations on each ear. The collection was conducted such that skin samples were obtained from the same locations on both the left and right ears. […] On the image, the areas of the individual skin pores were measured, so that the skin pore area on each punched skin sample was calculated. An average of the skin pore areas on the six punched skin samples was recorded as the size of skin pores on the corresponding ear sample of the corresponding rabbit.

[4] = Homo sapiens, Skin fibroblast, 15 μM, 48 hours, relative volume, control = 100%
[5] = Homo sapiens, Skin fibroblast, 50 μM, 48 hours, relative volume, control = 100%
[6] = 15 μM, 48 hours, relative volume, control = 100%
[7] = 50 μM, 48 hours, relative volume, control = 100%
[8] = Homo sapiens, Skin fibroblast, 48 h

CCCCCCCCCCCCCCCCOCC(O)COP(=O)(O)O (centres unmarked) [Compound 7, 1-hexadecylglycerol-3-phosphate disodium salt]
activity at 15 µM [1, 4]: 94% | activity at 50 µM [1, 5]: 79%

1-isostearylglycerol-3-phosphate monoarginine salt [Compound 31-B]
Contraction ratio (%) ([2]; 10 μM): 56.7%

CCCCCCCCCC(CCCCCCC)COCC(O)COP(=O)([O-])[O-].[Na+].[Na+] (centres unmarked) [Compound 28, 1-(2-heptylundecyl)glycerol-3-phosphate disodium salt]
Contraction ratio (%) ([2]; 10 μM): 48.3%

1-tetradecylglycerol-3-phosphate monoarginine salt [Compound 37]
Contraction ratio (%) ([2]; 10 μM): 63.3%

1-[2-(1,3,3-trimethylbutyl)-5,7,7-trimethyloctyl]-glycerol-3-phosphate monoarginine salt [Compound 35]
Contraction ratio (%) ([2]; 10 μM): 66.9%

1-(2-heptylundecyl)-glycerol-3-phosphate monoarginine salt [Compound 32]
Average gel volume [1, 6]: 92% | Average gel volume [1, 7]: 75% | Contraction ratio (%) ([2]; 10 μM): 52.2%

1-(2-decyltetradecyl)glycerol-3-phosphate monoarginine salt [Compound 41]
Contraction ratio (%) ([2]; 10 μM): 87.3%

CCCCCCCCCCCCCCO[C@H]1O[C@H](COS(=O)(=O)[O-])[C@H](O)[C@H](O)[C@H]1O.[Na+] [Compound 23, 1-α-O-tetradecylgalactopyranoside-6-sulfate sodium salt]
Contraction ratio (%) ([2]; 10 μM): 60.7%

CCCCCCCCCCCCOCCCOS(=O)(=O)[O-].[Na+] [Compound 25, 1-dodecylpropanediol-3-sulfate sodium salt]
Contraction ratio (%) ([2]; 10 μM): 88.0%

1-isostearylglycerol-3-phosphate monoarginine salt [Compound 31-A]
Average gel volume [1, 6]: 94% | Average gel volume [1, 7]: 79% | Contraction ratio (%) ([2]; 10 μM): 56.6%

1-hexadecylglycerol-3-phosphate monoarginine salt [Compound 38]
Contraction ratio (%) ([2]; 10 μM): 81.4%

CC(C)CCCCCCCCCCCCCCCC(O)[C@@H](O)[C@@H](O)[C@H](O)[C@@H](CO)OP(=O)([O-])[O-].[Na+].[Na+] (some centres unmarked) [Compound 29, 1-isostearylmannitol-5-phosphate disodium salt]
Contraction ratio (%) ([2]; 10 μM): 53.3%

1-dodecylglycerol-3-phosphate monoarginine salt [Compound 36]
Contraction ratio (%) ([2]; 10 μM): 71.3%

CCCCCCCCCCCCOCC(O)COP(=O)(O)O (centres unmarked) [Compound 5, 1-dodecylglycerol-3-phosphate disodium salt]
activity at 15 µM [1, 8]: 94% | activity at 50 µM [1, 8]: 83%

1-(2-hexyldecyl)-glycerol-3-phosphate monoarginine salt [Compound 33]
Contraction ratio (%) ([2]; 10 μM): 63.4%

1-(2-octyldodecyl)-glycerol-3-phosphate monoarginine salt [Compound 34]
Contraction ratio (%) ([2]; 10 μM): 67.3%

octylglucopyranosidesulfate sodium salt mixture [Compound 18]
Contraction ratio (%) ([2]; 50 μM): 90.1%

CC(C)CCCCCCCCCCCCCCCC(O)[C@@H](O)[C@@H](O)[C@H](O)[C@@H](CO)OS(=O)(=O)[O-].[Na+] (some centres unmarked) [Compound 30, 1-isostearylmannitol-5-sulfate sodium salt]
Contraction ratio (%) ([2]; 10 μM): 56.8%

CCCCCCCCCCCCO[C@@H]1O[C@H](COS(=O)(=O)[O-])[C@@H](O)[C@H](O)[C@H]1O.[Na+] [Compound 14, 1-β-O-dodecylglucopyranoside-6-sulfate sodium salt]
Contraction ratio (%) ([2]; 50 μM): 90.0%

1-dodecylpropanediol-3-phosphate disodium salt [Compound 26]
Contraction ratio (%) ([2]; 1 μM): 73.5%

CCCCCCCCCCCCCCCCCCOCC(O)COS(=O)(=O)O (centres unmarked) [Compound 2, 1-octadecylglycerol-3-sulfate sodium salt]
activity at 10 µM ([1]; Homo sapiens, Skin fibroblast, 10 μM, 48 hours, relative volume, control = 100%): 97% | activity at 30 µM ([1]; Homo sapiens, Skin fibroblast, 30 μM, 48 hours, relative volume, control = 100%): 92%

1-octadecylglycerol-3-phosphate monoarginine salt [Compound 39]
Contraction ratio (%) ([2]; 10 μM): 70.2%

CC(C)CCCCCCCCCCCCCCCOCC(O)COP(=O)([O-])[O-].[Na+].[Na+] (centres unmarked) [Compound 9, 1-isostearylglycerol-3-phosphate disodium salt]
skin pore area ([3]; 150 μL twice a day on ear, control sites 0.022 mm^2): 0.015 mm^2 | smaller in skin pore area than the control sites ([3]; twice a day, versus solvent-applied ear): about 30% | Contraction ratio (%) ([2]; 50 μM): 62.3%

CCCCCCCCCCCCCCOCC(O)COP(=O)(O)O (centres unmarked) [Compound 6, 1-tetradecylglycerol-3-phosphate disodium salt]
activity at 15 µM [1, 4]: 91% | activity at 50 µM [1, 5]: 88%

dodecylglucopyranosidephosphate disodium salt mixture [Compound 27]
Contraction ratio (%) ([2]; 10 μM): 67.0%

1-(2-dodecylhexadecyl)-glycerol-3-phosphate monoarginine salt [Compound 42]
Contraction ratio (%) ([2]; 10 μM): 87.7%

CCCCCCCCCCCCCCO[C@@H]1O[C@H](COS(=O)(=O)[O-])[C@H](O)[C@H](O)[C@H]1O.[Na+] [Compound 24, 1-β-O-tetradecylgalactopyranoside-6-sulfate sodium salt]
Contraction ratio (%) ([2]; 10 μM): 84.9%

CCCCCCCCCCCCCCCCCCOCC(O)COP(=O)([O-])[O-].[Na+].[Na+] (centres unmarked) [Compound 8, 1-octadecylglycerol-3-phosphate disodium salt]
activity at 15 µM [1, 8]: 93% | activity at 50 µM [1, 8]: 77% | Contraction ratio (%) ([2]; 50 μM): 77.0%

1-oleylglycerol-3-phosphate monoarginine salt [Compound 40]
Contraction ratio (%) ([2]; 10 μM): 63.0%
